Measured values: patent US20250032478A1 (SURGE Therapeutics, Inc., priority 2021, published 2025)

Legend:
[1] = Solubility in sodium phosphate buffered saline comprising 10 wt % poloxamer 407; format: physicochemical
[2] = Visual solubility assessment of Resiquimod Form I; format: physicochemical; details: room temperature
[3] = Hygroscopicity of solid form; format: physicochemical
[4] = system: 4T1-Luc2 breast cancer cells; experiment: Survival of tumor resection mice, composition placed at tumor resection site; format: in vivo, female BALB/c mice
Experimental: 4T1-Luc2 breast cancer cells were cultured in RPMI-1640 medium, with 10% fetal bovine serum (FBS) and 1% penicillin/streptomycin. All cells were cultured in a 37° C. in a humidified incubator, with 5% Co2.
All animal experiments were performed using 6-8 weeks old female BALB/c mice (Jackson Laboratories, #000651). For animal survival studies, 10^5 4T1-Luc2 cells were inoculated orthotopically into the fourth mammary fat pad of a mouse. Mice were size-matched and randomly assigned to treatment groups, and surgery was performed on day 10 or day 12 after tumor inoculation. Tumor sizes were measured with calipers. For primary tumor resection, mice were anesthetized with 2% isoflurane, the tumor was resected, and a hydrogel was placed in the surgical site at the time of surgery.
In some embodiments, female BALB/cJs mice were inoculated orthotopically with 100,000 breast cancer cells (e.g., 4T1-Luc2 cells).

[5] = in polymer combination of 8-12.5% or 6-11% (w/w) poloxamer (e.g. 10% P407) and 1-5% (w/w) HA (e.g. 4% HA 119 KDa), at tumor resection site, FIG. 29

CCOCc1nc2c(N)nc3ccccc3c2n1CC(C)(C)O [Resiquimod Form I, Resiquimod]
solubility [1]: increased solubility
Observation (visual solubility) ([2]; 1-Butanol, 0.5 mL added to 10 mg): Light hazy solution
Observation (visual solubility) ([2]; 1-Propanol, 0.5 mL added to 10 mg): Light hazy solution
Observation (visual solubility) ([2]; 2-Butanol, 0.5 mL added to 10 mg): Light hazy solution
Observation (visual solubility) ([2]; 2-Ethoxyethanol, 0.25-0.5 mL added to 10 mg): Light hazy solution throughout
Observation (visual solubility) ([2]; 2-Methoxyethanol, 0.25-0.5 mL added to 10 mg): Light hazy solution throughout
Observation (visual solubility) ([2]; 2-Methyl THF, 0.25 mL added to 10 mg): Clear solution
Observation (visual solubility) ([2]; 2-Propanol, 0.5 mL added to 10 mg): Suspension
Observation (visual solubility) ([2]; Acetone, 0.5 mL added to 10 mg): Suspension
Observation (visual solubility) ([2]; Acetonitrile, 0.5 mL added to 10 mg): Suspension
Observation (visual solubility) ([2]; Amyl alcohol, 0.5 mL added to 10 mg): Light hazy solution
Observation (visual solubility) ([2]; Anisole, 0.5 mL added to 10 mg): Suspension
Observation (visual solubility) ([2]; CPME, 0.5 mL added to 10 mg): Suspension
Observation (visual solubility) ([2]; Chloroform, 0.5 mL added to 10 mg): Light hazy solution
Observation (visual solubility) ([2]; Cyclohexane, 0.5 mL added to 10 mg): Suspension
Observation (visual solubility) ([2]; DMP, 0.5 mL added to 10 mg): Suspension
Observation (visual solubility) ([2]; Dichloromethane, 0.5 mL added to 10 mg): Light hazy solution
Observation (visual solubility) ([2]; Diethyl ether, 0.5 mL added to 10 mg): Suspension
Observation (visual solubility) ([2]; Ethanol, 0.25-0.5 mL added to 10 mg): Light hazy solution throughout
Observation (visual solubility) ([2]; Ethyl acetate, 0.5 mL added to 10 mg): Suspension
Observation (visual solubility) ([2]; Heptane, 0.5 mL added to 10 mg): Suspension
Observation (visual solubility) ([2]; Hexane, 0.5 mL added to 10 mg): Suspension
Observation (visual solubility) ([2]; Isobutanol, 0.5 mL added to 10 mg): Light hazy solution
Observation (visual solubility) ([2]; Isobutyl acetate, 0.5 mL added to 10 mg): Suspension
Observation (visual solubility) ([2]; Isopropyl acetate, 0.5 mL added to 10 mg): Suspension
Observation (visual solubility) ([2]; MEK, 0.5 mL added to 10 mg): Suspension
Observation (visual solubility) ([2]; MIBK, 0.5 mL added to 10 mg): Suspension
Observation (visual solubility) ([2]; MIPK, 0.5 mL added to 10 mg): Suspension
Observation (visual solubility) ([2]; MTBE, 0.5 mL added to 10 mg): Suspension
Observation (visual solubility) ([2]; Methanol, 0.25-0.5 mL added to 10 mg): Light hazy solution throughout
Observation (visual solubility) ([2]; Methyl acetate, 0.5 mL added to 10 mg): Suspension
Observation (visual solubility) ([2]; Nitromethane, 0.5 mL added to 10 mg): Suspension
Observation (visual solubility) ([2]; Octane, 0.5 mL added to 10 mg): Suspension
Observation (visual solubility) ([2]; Pentane, 0.5 mL added to 10 mg): Suspension
Observation (visual solubility) ([2]; Petroleum Ether, 0.5 mL added to 10 mg): Suspension
Observation (visual solubility) ([2]; Propylene glycol, 0.25-0.5 mL added to 10 mg): Light hazy solution throughout
Observation (visual solubility) ([2]; THF, 0.25-0.5 mL added to 10 mg): Light hazy solution
Observation (visual solubility) ([2]; Toluene, 0.5 mL added to 10 mg): Suspension
Observation (visual solubility) ([2]; Water, 0.5 mL added to 10 mg): Suspension
Observation (visual solubility) ([2]; Xylene, 0.5 mL added to 10 mg): Suspension
Observation (visual solubility) ([2]; p-Dioxane, 0.5 mL added to 10 mg): Light hazy solution
hygroscopicity [3]: notably low hygroscopicity

CCOCc1nc2c(N)nc3ccccc3c2n1CC(C)(C)O [resiquimod, Resiquimod]
efficacy vs chemically-crosslinked hyaluronic acid hydrogel (HyStem) incorporated with resiquimod ([4]; in crosslinked hydrogel of 8-13.5% (w/w) Poloxamer (e.g. 10% P407) and 0.6-1.5% (w/w) HA (e.g. 1% HA 1.5 MDa), FIG. 27A-E): comparable to or better than
survival time longer than control group receiving the hydrogel without resiquimod ([4]; in crosslinked hydrogel of 8-13.5% or 6-11% (w/w) Poloxamer (e.g. 10% P407) and 0.6-1.5% (w/w) HA (e.g. 1% HA 1.5 MDa), at tumor resection site, FIG. 27A-E): at least 50%
survival rate vs control group receiving the hydrogel without resiquimod ([4]; in crosslinked hydrogel of 8-13.5% or 6-11% (w/w) Poloxamer and 0.6-1.5% (w/w) HA, at tumor resection site, FIG. 27A-E): much higher survival rate
survival time vs control group receiving polymer combination without resiquimod ([4]; in polymer combination of 8-12.5% or 6-11% (w/w) poloxamer (e.g. 8%, 10% or 12.5% P407) and 1.2-2.75% (w/w) HA (e.g. 1.625% or 2.25% HA 730 KDa), at tumor resection site, FIG. 28A-D): survived over a longer period of time
survival rate vs control group receiving polymer combination without resiquimod [4, 5]: higher survival rate
survival time vs control group receiving polymer combination without resiquimod [4, 5]: survived over a longer period of time
survival rate vs control group receiving polymer combination without resiquimod ([4]; in polymer combination of 8-12.5% or 6-11% (w/w) poloxamer and 1.2-2.75% (w/w) HA 730 KDa, at tumor resection site, FIG. 28A-D): higher survival rate
